From PMC4687966 (Journal of medicinal chemistry, 2015) come the findings set out here.

Assay [1] deals with T1, Mtb BioA (Mycobacterium tuberculosis, UniProt P9WQ81). The format is binding. As to conditions: for KA / ΔH / −TΔS / ΔG: 25 °C; for KA / ΔH: 100 µM BioA, pH 7.5; for −TΔS: from ΔG = ΔH − TΔS; for ΔG: ΔG = −RT ln KA; for LE (ligand efficiency): LE = (−ΔG)/N, N = number of non-hydrogen atoms.
In assay [2] the target is T1, Mtb BioA. Nature of the assay: Differential scanning fluorimetry. The format is binding. As to conditions: DSF; holo BioA Tm 85 °C. A general note: Differential scanning fluorimetry follows unfolding on heating by fluorescence.

T1 sequence (P9WQ81 whole entry): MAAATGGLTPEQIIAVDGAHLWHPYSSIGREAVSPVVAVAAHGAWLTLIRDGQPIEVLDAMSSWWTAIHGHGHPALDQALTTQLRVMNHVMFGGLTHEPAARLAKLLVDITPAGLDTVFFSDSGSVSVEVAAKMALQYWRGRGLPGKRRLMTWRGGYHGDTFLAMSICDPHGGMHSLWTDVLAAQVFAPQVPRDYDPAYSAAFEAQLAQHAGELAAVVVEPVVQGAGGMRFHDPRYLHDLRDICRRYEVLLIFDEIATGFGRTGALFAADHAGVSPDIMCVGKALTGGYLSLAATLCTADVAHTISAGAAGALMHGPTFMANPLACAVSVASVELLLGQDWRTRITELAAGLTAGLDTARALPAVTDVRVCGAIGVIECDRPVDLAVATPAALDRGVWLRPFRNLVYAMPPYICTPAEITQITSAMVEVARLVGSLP

With `NC(=O)c1ccc(-n2ccnc2)cc1` [F3], on Mtb BioA [1] (ITC), the KA is 6.8 ± 1.3 10^4 M^−1, the ΔH is -6.3 ± 0.2 kcal/mol, the “−TΔS” value is -0.2 ± 0.1 kcal/mol and the ΔG is -6.6 ± 0.1 kcal/mol. The “LE (ligand efficiency)” value at Mtb BioA [1] turned out to be 0.47.

With `CNCc1ccc(Cn2cccn2)cc1` [F5], at Mtb BioA [1] (ITC), the “ΔH (enthalpic stabilization)” value is -12.9 kcal/mol, the “−TΔS (binding entropy)” value was “+6.2 kcal/mol”, the KA is on record as 8.6 ± 0.1 10^4 M^−1 and the ΔH was -12.9 ± 0.6 kcal/mol. Moreover, on Mtb BioA [1] (ITC), the “−TΔS” value was found to be 6.2 ± 0.6 kcal/mol and the ΔG is -6.7 ± 0.0 kcal/mol. Further, at Mtb BioA [1], the “LE (ligand efficiency)” value worked out at 0.45.

Take `NCc1ccc(Cn2cc(Cl)cn2)cc1` [F5.1]: the “Tm of BioA with compound” value on Mtb BioA [2] was determined as 73 °C. Further, on Mtb BioA [1] (ITC), the “Improvement in KD over the parent fragment F5” value is 1.7 fold, the KA is reported as 14.9 ± 1.7 10^4 M^−1, the ΔH was -11.3 ± 0.5 kcal/mol and the “−TΔS” value was 4.3 ± 0.5 kcal/mol. Also, the ΔG on Mtb BioA [1] (ITC) was -7.0 ± 0.1 kcal/mol. The “LE (ligand efficiency)” value on Mtb BioA [1] was 0.47.

Consider `O=C(c1ccccc1)C1CCNCC1` [F7], for which, on Mtb BioA [1] (ITC), the KA is reported as 2.4 ± 0.4 10^4 M^−1, the ΔH is -4.9 ± 0.2 kcal/mol, the “−TΔS” value is -1.1 ± 0.2 kcal/mol and the ΔG was -6.0 ± 0.1 kcal/mol. For the same compound, at Mtb BioA [1], the “LE (ligand efficiency)” value was 0.43.

For `CC(=O)Nc1ccc2c(c1)C=CC2=O` [F9], on Mtb BioA [1] (ITC), the KA is reported as 4.6 ± 0.3 10^4 M^−1, the ΔH was -3.3 ± 0.2 kcal/mol, the “−TΔS” value was -3.0 ± 0.2 kcal/mol and the ΔG is -6.3 ± 0.0 kcal/mol. Besides, at Mtb BioA [1], the “LE (ligand efficiency)” value came to 0.45.

Regarding `NC(=O)c1ccc(-c2ccccn2)s1` [F2], at Mtb BioA [1] (ITC), the KA was 14.6 ± 1.3 10^4 M^−1, the ΔH was -5.4 ± 0.0 kcal/mol, the “−TΔS” value was -1.6 ± 0.1 kcal/mol and the ΔG is -7.0 ± 0.1 kcal/mol. In addition, the “LE (ligand efficiency)” value on Mtb BioA [1] is given as 0.50.

For the compound `NCc1nc2ccccc2s1` [F10], on Mtb BioA [1] (ITC), the KA is reported as 3.3 ± 0.5 10^4 M^−1, the ΔH is -1.4 ± 0.2 kcal/mol, the “−TΔS” value was -4.8 ± 0.1 kcal/mol and the ΔG was -6.1 ± 0.1 kcal/mol. Also, the “LE (ligand efficiency)” value at Mtb BioA [1] was found to be 0.55.
